# Where a name gives a salt, the structure may show the parent alone.
# System: IRF3 phosphorylation in FaDu cell
# Experiment: Phosphorylated IRF3 protein detection in FaDu cell
# Assay type: cell-based, human
# Details: at 30 μM; 6 hr; 2′,3′-cGAMP 30 μM = 100%
# Description: Human larynx cancer cell line FaDu cell (ATCC) was seeded, the medium was replaced with serum free medium one day after the seeding. After the replacement, the cell was cultured for one day, and to the cell were added the natural ligand 2′,3′-cGAMP (the final concentration; 30 μM) and test compound (the final concentration; 15 μM or 30 μM). 6 hr after the addition, the cell was washed with PBS, the cell extract was prepared, and the phosphorylated IRF3 protein was detected by ELISA method or Western blotting method. The IRF3 protein phosphorylation activity of the test compound was calculated when the value in the sample with adding the natural ligand 2′,3′-cGAMP at the final concentration of 30 μM was considered as 100%.
smiles,measurement,value
"Nc1ncnc2c1ncn2[C@@H]1O[C@@H]2COP(=O)(O)O[C@@H]3[C@H](O)[C@@H](COP(=O)(S)O[C@H]2[C@H]1F)O[C@H]3n1cc(F)c2c(=O)[nH]cnc21 (stereo partly drawn) [Example 2, 7-((5R,7R,8R,12aR,14R,15R,15aR,16R)-14-(6-amino-9H-purin-9-yl)-15-fluoro-10,16-dihydroxy-2,10-dioxido-2-sulfanyloctahydro-12H-5,8-methanofuro[3,2-1][1,3,6,9,11,2,10]pentaoxadiphosphacyclotetradecin-7-yl)-5-fluoro-3,7-dihydro-4H-pyrrolo[2,3-d]pyrimidin-4-one di-triethylamine salt (Optical Isomer)]",activity level of test compound (IRF3 protein phosphorylation),88.7% at 30 μM
